No end group written: not given here.
System: intrinsic pathway
Experiment: activated partial thromboplastin time (APTT) screening coagulation assay
Format: biochemical
Conditions: phage expressing the peptide tested; APTT is a standard screening marker of the activity of the intrinsic pathway
From the text: While in vitro or animal testing are not acceptable tools for establishing the safety thus usefulness of drugs, such as anticoagulants, screening compounds for specificity towards factor XI, thus potential utility in the clinic, is an necessary intermediate step in practicing this invention. In such an effort, several FXI-specific peptides have been created using standard phage display technology. […] One example of such a phage is given here. Amino acid sequencing of the peptide expressed by this phage yields Gln-Lys-Met-Gln-His-Gly-Ile-Trp-Asn-Arg-Thr-Ala using standard technology. The phage expressing the peptide is then tested in screening coagulation assays, such as activated partial thromboplastin time (APTT) and prothrombin time (PT). […] This peptide, and other inhibitory compounds with FXI specificity, such as Gln-Gln-Val-Ala-Asn-Trp-Ser-Met-Ser-Pro-Ala, are considered only as examples of intermediate steps in identifying and preparing compounds of this invention that can exclusively reduce FXI activity. Other methods of screening exist.

QKMQHGIWNRTA [FXI-specific peptide from phage display, tested as the phage expressing it]
prolongation of APTT: significant prolongation
